The values that follow come from ChEMBL document CHEMBL1201862, “PubChem BioAssay data set” (2004).

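Method: 48-hour compound exposure of cells in 96-well plates, five concentrations, linear interpolation of endpoints. Abbreviation: GI50, concentration required for 50% inhibition of growth.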 Activity calls are given as the source filed them. Rule as the data show it: active = GI50 up to about 1.1 µM and inactive = higher. A value given as a limit tells only on which side of the number the result lay.

Some test systems named below: OVCAR-8; NCI-H460; HOP-62; HT-29; T47D; SF-295; RPMI-8226; SNB-75; Hs-578T; HOP-92; COLO 205; UACC-257; OVCAR-4; SK-MEL-28; SK-OV-3; HCT-116; MOLT-4; MDA-MB-435; SW-620; DU-145.
Common to all, as to assay: NCI tumour cell line growth inhibition, 48 h

For `COc1ccc(NC(=O)CC(=O)n2nc(-c3ccccc3)c(/N=N/c3ccccc3C)c2-c2ccccc2)cc1`, the GI50 with OVCAR-8 is 28 µM (inactive); with NCI-H460, 22.4 µM (inactive); with HOP-62 it was 15.9 µM (inactive); with HT-29, 44.9 µM (inactive); in the test on T47D, 22.7 µM (inactive); with SF-295, 23.3 µM (inactive). The GI50 in the test with RPMI-8226 is > 58.5 µM (inactive); in the test on SNB-75 it was 18.7 µM (inactive); in the test on Hs-578T, 14.3 µM (inactive); in the test with HOP-92 it was 15.6 µM (inactive); in the test on COLO 205, > 61.7 µM (inactive); in the test with UACC-257 it was 64.1 µM (inactive). The GI50 in the test on OVCAR-4 is 23.9 µM (inactive); in the test with SK-MEL-28 it was > 41.7 µM (inactive); with SK-OV-3, 19.9 µM (inactive); in the test on HCT-116, 20.5 µM (inactive); in the test with MOLT-4, > 64.1 µM (inactive); in the test with MDA-MB-435, > 100 µM (inactive). Besides, the values for the GI50 in the test with SW-620 and in the test with DU-145 were 35.4 µM (inactive) and 45.8 µM (inactive), respectively.
Turning to `CC(CC[C@@]1(O)OC2C[C@H]3[C@@H]4CC[C@H]5CC(OC6OC(CO)C(OC7OC(CO)C(O)C(OC8OCC(O)C(O)C8O)C7OC7OC(CO)C(O)C(O)C7O)C(O)C6O)[C@H](O)CC5(C)[C@H]4CCC3(C)C2[C@@H]1C)COC1OC(CO)C(O)C(O)C1O` (stereo not given in full), the GI50 in the test on OVCAR-8 was 9.86 µM (inactive); in the test with NCI-H460, 2.09 µM (inactive); in the test on HOP-62 it was 4.15 µM (inactive); with HT-29, 11 µM (inactive); in the test on T47D it was 12.2 µM (inactive); with SF-295, 4.24 µM (inactive). Moreover, the GI50 in the test on RPMI-8226 is 19.4 µM (inactive); in the test on SNB-75 it was 0.64 µM (active); in the test on Hs-578T, 4.73 µM (inactive); in the test on HOP-92 it was 17.7 µM (inactive); with COLO 205, 13 µM (inactive); with UACC-257, 15.8 µM (inactive). Besides, the GI50 with OVCAR-4 was 9.79 µM (inactive); in the test on SK-MEL-28, 29.2 µM (inactive); in the test with SK-OV-3, 13.2 µM (inactive); with HCT-116, 3.67 µM (inactive); with MOLT-4 it was 2.45 µM (inactive); in the test with MDA-MB-435 it was 14.8 µM (inactive). The GI50 in the test with SW-620 is 11.6 µM (inactive); in the test with DU-145 it was 3.09 µM (inactive).
As for `CC1OC(OC2C(O)COC(OC3C(C)OC(OC4C(OC(=O)[C@]56CCC(C)(C)C[C@@H]5C5=CCC7[C@@]8(C)C[C@H](O)[C@H](OC9OC(CO)C(O)C(OC%10OC(CO)C(O)C(O)C%10O)C9O)[C@@](C)(CO)[C@@H]8CC[C@@]7(C)[C@]5(C)CC6)OCC(O)C4O)C(O)C3OC3OCC(O)C(O)C3O)C2O)C(O)C(O)C1O` (stereo not given in full), the GI50 in the test on OVCAR-8 was 13.1 µM (inactive); in the test with NCI-H460, 17.4 µM (inactive); in the test with HOP-62 it was 6.76 µM (inactive); with HT-29, 18.7 µM (inactive); in the test with T47D, 3.96 µM (inactive); in the test with SF-295, 3.14 µM (inactive). Moreover, the GI50 in the test with RPMI-8226 was 13.9 µM (inactive); in the test on SNB-75 it was 16 µM (inactive); in the test on Hs-578T, 15.2 µM (inactive); in the test with HOP-92 it was 12.3 µM (inactive); in the test on COLO 205, 1.92 µM (inactive); with UACC-257, 4.63 µM (inactive). For the same compound, the GI50 in the test with OVCAR-4 is 11.7 µM (inactive); in the test with SK-MEL-28, 2.27 µM (inactive); in the test on SK-OV-3, 14.8 µM (inactive); in the test with HCT-116, 11.3 µM (inactive); in the test with MOLT-4, 16.6 µM (inactive); in the test with MDA-MB-435 it was 2.66 µM (inactive). Moreover, the GI50 was 6.35 µM (inactive) in the test on SW-620 and 7.1 µM (inactive) in the test with DU-145.
As for `CN(C)C(=S)N1C(=S)N(c2ccccc2)C(=N/c2ccccc2)/C1=N\c1ccccc1`, the GI50 with OVCAR-8, in the test with NCI-H460, in the test with HOP-62, in the test with HT-29, in the test on T47D and in the test with SF-295 was > 100 µM (inactive) in each case. The GI50 in the test on RPMI-8226, with SNB-75, with Hs-578T, with HOP-92, with COLO 205 and in the test with UACC-257 was > 100 µM (inactive) throughout. Besides, the GI50 with OVCAR-4, in the test with SK-MEL-28, in the test on SK-OV-3, in the test on HCT-116, with MOLT-4 and in the test on MDA-MB-435 was > 100 µM (inactive) throughout. For the same compound, the GI50 with SW-620 and with DU-145 was > 100 µM (inactive) each time.
As for `C#C[C@]1(O)CC[C@H]2[C@@H]3CCC4=C/C(=N/OC(=O)c5cccc6c(=O)c7ccccc7[nH]c56)CCC4[C@H]3CC[C@@]21CC` (stereo not given in full), the GI50 in the test on OVCAR-8 was 19.8 µM (inactive); in the test on NCI-H460, 14.3 µM (inactive); with HOP-62 it was 49.1 µM (inactive); in the test on HT-29 it was 8.28 µM (inactive); in the test on T47D it was 24.8 µM (inactive); in the test with SF-295 it was 3.69 µM (inactive). In addition, the GI50 in the test with RPMI-8226 was 1.37 µM (inactive); in the test with SNB-75 it was 9.18 µM (inactive); in the test on Hs-578T it was > 100 µM (inactive); in the test on HOP-92, 42.6 µM (inactive); in the test on COLO 205 it was 37.2 µM (inactive); in the test with UACC-257, 11.3 µM (inactive). The GI50 was 49.3 µM (inactive) with OVCAR-4; 22 µM (inactive) in the test with SK-MEL-28; 63.1 µM (inactive) with SK-OV-3; 25 µM (inactive) in the test on HCT-116; 4.3 µM (inactive) with MOLT-4; 26.5 µM (inactive) in the test with MDA-MB-435. The figures for the GI50 in the test with SW-620 and in the test on DU-145 were 24 µM (inactive) and 55.2 µM (inactive), respectively.
As for `Cn1c(=O)cc(NNc2ccccc2)[nH]c1=O`, the GI50 with OVCAR-8 was 20.9 µM (inactive); in the test with NCI-H460, > 100 µM (inactive); in the test on HOP-62 it was > 100 µM (inactive); with HT-29, 15.7 µM (inactive); in the test on T47D, 17.6 µM (inactive); in the test on SF-295 it was > 100 µM (inactive). The GI50 in the test with RPMI-8226 is 17.1 µM (inactive); with SNB-75, > 100 µM (inactive); in the test with Hs-578T, > 100 µM (inactive); in the test with HOP-92 it was 22.1 µM (inactive); in the test on COLO 205 it was > 100 µM (inactive); in the test on UACC-257, 48.3 µM (inactive). For the same compound, the GI50 in the test with OVCAR-4 is > 100 µM (inactive); in the test on SK-MEL-28 it was 28.6 µM (inactive); in the test with SK-OV-3, > 100 µM (inactive); in the test with HCT-116 it was 17.8 µM (inactive); in the test with MOLT-4, 37.9 µM (inactive); in the test with MDA-MB-435, 28.2 µM (inactive). The GI50 in the test with SW-620 is 17.5 µM (inactive); with DU-145, 54.2 µM (inactive).
On to `CCOC(=O)N1C/C(=C\c2ccccc2)C(=O)/C(=C/c2ccccc2)C1`, for which the GI50 in the test on OVCAR-8 was 2.82 µM (inactive); in the test on NCI-H460 it was 4 µM (inactive); in the test with HOP-62, 4.41 µM (inactive); with HT-29 it was 1.49 µM (inactive); in the test with T47D, 3.65 µM (inactive); in the test on SF-295, 3.01 µM (inactive). Also, the GI50 in the test with RPMI-8226 is 0.182 µM (active); with SNB-75, 6.97 µM (inactive); with Hs-578T it was 2.4 µM (inactive); with HOP-92, 6.56 µM (inactive); in the test on COLO 205 it was 4.7 µM (inactive); in the test on UACC-257, 4.46 µM (inactive). Further, the GI50 with OVCAR-4 is 2.37 µM (inactive); with SK-MEL-28 it was 2.39 µM (inactive); in the test on SK-OV-3 it was 9.2 µM (inactive); in the test on HCT-116, 1.14 µM (inactive); in the test on MOLT-4, 1.96 µM (inactive); in the test on MDA-MB-435, 2.48 µM (inactive). Besides, the values for the GI50 in the test with SW-620 and in the test on DU-145 were 1.4 µM (inactive) and 8.81 µM (inactive), respectively.
Turning to `C=CCOC(=O)N1c2ccc(O)cc2[C@@]23O[C@@]24[C@@H]1C#C/C=C\C#C[C@]3(O)C(OC)(OC)C[C@@H]4C`, the GI50 with OVCAR-8 is 32.5 µM (inactive); in the test on NCI-H460, 24.4 µM (inactive); with HOP-62, 34.6 µM (inactive); in the test with HT-29, 21.7 µM (inactive); in the test on T47D, > 100 µM (inactive); in the test with SF-295, 36.9 µM (inactive). Further, the GI50 in the test with RPMI-8226 is 34.4 µM (inactive); in the test on SNB-75, 12.1 µM (inactive); in the test on Hs-578T, 37.8 µM (inactive); with HOP-92, 16.4 µM (inactive); with COLO 205, 19.1 µM (inactive); in the test with UACC-257, 19.1 µM (inactive). Further, the GI50 in the test with OVCAR-4 was 0.258 µM (active); in the test on SK-MEL-28, 45.1 µM (inactive); in the test with SK-OV-3, 61 µM (inactive); with HCT-116, 35.2 µM (inactive); with MOLT-4 it was 16.3 µM (inactive); in the test on MDA-MB-435, 15.1 µM (inactive). The GI50 in the test on SW-620 is 52.2 µM (inactive); in the test on DU-145, 46.6 µM (inactive).
In the case of `C[C@H](CCC(=O)O)[C@H]1CC[C@@]2(C)[C@@H]3C(=O)C[C@H]4C(C)(C)[C@@H](O)CC[C@]4(C)[C@H]3C(=O)C[C@]12C`, the GI50 in the test with OVCAR-8 is > 100 µM (inactive); with NCI-H460, 62.7 µM (inactive); in the test with HOP-62, > 100 µM (inactive); in the test on HT-29 it was > 100 µM (inactive); with T47D, > 100 µM (inactive); in the test with SF-295, > 100 µM (inactive). The GI50 in the test with RPMI-8226 is > 100 µM (inactive); with SNB-75, > 100 µM (inactive); in the test with Hs-578T it was 41.8 µM (inactive); with HOP-92 it was > 100 µM (inactive); with COLO 205, > 100 µM (inactive); in the test with UACC-257, > 100 µM (inactive). Besides, the GI50 in the test with OVCAR-4, in the test on SK-MEL-28, in the test with SK-OV-3, in the test with HCT-116, with MOLT-4 and in the test on MDA-MB-435 was > 100 µM (inactive) throughout. Besides, the GI50 with SW-620 and in the test with DU-145 was > 100 µM (inactive) throughout.
